Entries after “also recorded” stand apart in the source; their conditions may differ.
Tests used:
[1] = Stability study: change in purity of solid forms after storage under different conditions; type: physicochemical; conditions: for Purity, Initial (Day 0): before storage; for Overall stability / degree of degradation compared with other forms: forced degradation conditions of the stability study; for Purity, Room Temperature (Day 10): stored at room temperature for 10 days; for Purity, In Light (Day 10): stored in light for 10 days
Protocol: Samples of the amorphous and crystalline (Forms I and II) compound of formula (I) were stored under different conditions.
Storage conditions for the crystalline form Form II: at 60° C. for 10 days; at 60° C. and 75% RH (relative humidity) for 10 days; in light for 10 days; and at room temperature for 10 days.
Storage conditions for the amorphous and crystalline (Form I) forms: at 40° C. for 10 days; at 60° C. and 75% RH for 10 days; in light for 10 days; and at room temperature for 10 days.

[2] = Hygroscopicity by dynamic vapor sorption (DVS), with XRPD before and after; type: physicochemical
[3] = cited from earlier work
[4] = stored at 60° C. and 75% RH for 10 days
[5] = stored at room temperature and in light for 10 days

| SMILES | Purity, Initial (Day 0) [1] [%] | Overall stability / degree of degradation compared with other forms [1] | Purity, 40° C. (Day 10) ([1]; stored at 40° C. for 10 days) [%] | Purity, 60° C. + 75% RH (Day 10) [1, 4] [%] | Stability in words [1, 5] | Purity, Room Temperature (Day 10) [1] [%] | Purity, In Light (Day 10) [1] [%] | Hygroscopicity [2] | 4-AAM AUC ([3]; AUC of the active metabolite 4-AAM, among the prodrugs of CN 202111131059.0) | AUC of the prodrug itself ([3]; among the prodrugs of CN 202111131059.0) | Rate of hydrolysis in blood ([3]; among the pyrazolopyrimidine ester prodrugs of CN 202111131059.0) | Stability in words ([1]; degradation conditions such as high-temperature and high-humidity) | Purity, 60° C. (Day 10) ([1]; stored at 60° C. for 10 days) [%] | XRPD pattern before and after the DVS determination [2] | Degradation in words ([1]; stored at 40° C. for 10 days, listed as amorphous) | Degradation in words ([1]; stored at 40° C. for 10 days, listed as amorphous compound) | Degradation in words [1, 4] |
| --- | --- | --- | --- | --- | --- | --- | --- | --- | --- | --- | --- | --- | --- | --- | --- | --- | --- |
| C=CC(=O)N1CCC[C@@H](n2nc(-c3ccc(Oc4ccccc4)cc3)c3c(NC(=O)OCCCC)ncnc32)C1 [Form I, 1-[(3R)-3-[4-(butoxycarbonyl)-amino-3-(4-phenoxyphenyl)-1H-pyrazolo[3,4-d]pyrimidin-1-yl]-1-piperidinyl]-2-propen-1-one] | 98.68 | lower degrees of degradation than the amorphous form | 98.60 | 90.62 | very stable; also recorded: remaining stable | 98.64 | 98.62 | almost non-hygroscopic |  |  |  |  |  |  |  |  |  |
| C=CC(=O)N1CCC[C@@H](n2nc(-c3ccc(Oc4ccccc4)cc3)c3c(NC(=O)OCCCC)ncnc32)C1 [formula (I), 1-[(3R)-3-[4-(butoxycarbonyl)-amino-3-(4-phenoxyphenyl)-1H-pyrazolo[3,4-d]pyrimidin-1-yl]-1-piperidinyl]-2-propen-1-one] |  |  |  |  |  |  |  |  | highest | lowest | most rapidly |  |  |  |  |  |  |
| C=CC(=O)N1CCC[C@@H](n2nc(-c3ccc(Oc4ccccc4)cc3)c3c(NC(=O)OCCCC)ncnc32)C1 [Form II, 1-[(3R)-3-[4-(butoxycarbonyl)-amino-3-(4-phenoxyphenyl)-1H-pyrazolo[3,4-d]pyrimidin-1-yl]-1-piperidinyl]-2-propen-1-one] | 99.13 | lower degree of degradation than the amorphous form; also recorded: obviously better than the amorphous form and even better than Form I |  | 97.80 | more stable | 99.13 | 99.17 |  |  |  |  | stable | 98.90 | remained the same |  |  |  |
| C=CC(=O)N1CCC[C@@H](n2nc(-c3ccc(Oc4ccccc4)cc3)c3c(NC(=O)OCCCC)ncnc32)C1 [Amorphous, 1-[(3R)-3-[4-(butoxycarbonyl)-amino-3-(4-phenoxyphenyl)-1H-pyrazolo[3,4-d]pyrimidin-1-yl]-1-piperidinyl]-2-propen-1-one] | 99.07 | poor stability | 96.10 | 0.27 |  | 98.01 | 98.63 |  |  |  |  |  |  |  | Noticeable degradation | Significant degradation | almost complete degradation |

— patent US20260055111A1, “CRYSTALLINE FORM OF PYRAZOLOPYRIMIDINE ESTER COMPOUND AND METHODS OF PREPARING THE SAME” (Shanghai Maius Pharmaceutical Co. Ltd., priority 2022, published 2026)
